From patent US20240368157A1, “FORMS AND COMPOSITIONS OF A JAK2 INHIBITOR” (Ajax Therapeutics, Inc., priority 2023, published 2024)
Values after ≈ are worked out from the molar mass of the structure shown.

Assays:
[1] = tested on: JAK2-mediated pSTAT5 signaling in constitutively active essential thrombocytopenia cells carrying the V617F mutation; test: SET2-pSTAT5 Cellular Assay; type: cell-based; details: Homo sapiens, SET-2, 4 hours
Description: This assay measures inhibition of JAK2-mediated pSTAT5 signaling in constitutively active essential thrombocytopenia cells carrying the V617F mutation. Cells are harvested from a flask into cell culture medium, and the number of cells is counted. The cells are diluted with culture medium and 100 μL of cell suspension (50000/well) is added into each well of a 96-well cell culture plate. A solution of test compound is added to the assay plate. The plates are covered with a lid and placed in a 37° C. 5% CO2 incubator for 4 hours. After 4 hours, the cells are spun, and the cell pellets are re-suspended with 100 μL cold PBS. Then, the cells are spun again at 4° C. and 4000 rpm for 5 min. PBS is aspirated, and 25 μL lysis buffer (with protease and phosphatase inhibitor cocktail) is added to each cell pellet. The cell lysate is shaken at 4° C. for 20 min to fully lyse the cells. The cell lysate is spun at 4° C. and 4000 rpm for 15 min, and then the supernatant is transferred into a new plate and stored at −80° C. Meso-scale discovery (MSD) is used to analyze plates as follows: a standard MSD plate is coated with capture antibody in PBS (40 μL/well) and is incubated at 4° C. overnight with shaking. […] MSD reading buffer (1×) is added to the plates (150 μL/well), and they are diluted from 4× with water. […]

[2] = Hepatocyte Stability Assay (rat hepatocytes); type: in vitro ADME; details: cryopreserved hepatocytes, read-out: Rat Heps CLint
Description: 10 mM stock solutions of test compound and positive control are prepared in DMSO. Stock solutions are diluted to 100 μM by combining 198 μL of 50% acetonitrile/50% water and 2 μL of 10 mM stock solution. Verapamil is used as positive control in the assay. Vials of cryopreserved hepatocytes are thawed in a 37° C. water bath with gently shaking. The contents are poured into the 50 mL thawing medium conical tube. Vials are centrifuged at 100 g for 10 minutes at room temperature. Thawing medium is aspirated and hepatocytes are re-suspended with serum-free incubation medium to yield ˜1.5×10^6 cells/mL. Cell viability and density are counted using a Trypan Blue exclusion, and then cells are diluted with serum-free incubation medium to a working cell density of 0.5×10^6 viable cells/mL. A portion of the hepatocytes at 0.5×10^6 viable cells/mL are boiled for 5 min prior to adding to the plate as negative control to eliminate the enzymatic activity so that little or no substrate turnover should be observed. Aliquots of 198 μL hepatocytes are dispensed into each well of a 96-well non-coated plate. The plate is placed in the incubator for approximately 10 minutes. Aliquots of 2 μL of the 100 μM test compound and 2 μL positive control are added into respective wells of a non-coated 96-well plate to start the reaction. The final concentration of test compound is 1 μM. […]

[3] = Kinetic Solubility Assay; type: physicochemical; details: aqueous buffer, kinetic from dmso stock, PBS, RT, pH of the reported value not stated (method: pH 4.0 and pH 7.4)
Description: Stock solutions of test compounds are prepared in DMSO at the concentration of 10 mM, and a stock solution of control compound is prepared in DMSO at the concentration of 30 mM. Diclofenac is used as positive control in the assay. 30 μL stock solution of each compound is placed into their a 96-well rack, followed by adding 970 μL of PBS at pH 4.0 and pH 7.4 into each vial of the cap-less solubility sample plate. This study is performed in duplicate. One stir stick is added to each vial and then vials are sealed using a molded PTDE/SIL 96-Well Plate Cover. The solubility sample plate is transferred to the Thermomixer comfort plate shaker and incubated at RT for 2 hours with shaking at 1100 rpm. After 2 hours incubation, stir sticks are removed using a big magnet and all samples from the solubility sample plate are transferred into the filter plate. All the samples are filtered by vacuum manifold. The filtered samples are diluted with methanol. Samples are analyzed by LC-MS/MS and quantified against a standard of known concentration in DMSO using LC coupled with Mass spectral peak identification and quantitation. The solubility values of the test compounds are calculated as follows, wherein INJ VOL is injection volume, DF is dilution factor, and STD is standard: […]

`CN(C)C(=O)Nc1cc(Oc2cnc3nc(Nc4cc(C(F)(F)F)cn(C)c4=O)n(C)c3c2C#N)ccn1` [Compound 1, 3-(4-((7-cyano-1-methyl-2-((1-methyl-2-oxo-5-(trifluoromethyl)-1,2-dihydropyridin-3-yl)amino)-1H-imidazo[4,5-b]pyridin-6-yl)oxy)pyridin-2-yl)-1,1-dimethylurea] showed an IC50 [1] of less than 125 nM, a CLint scaled at 1 μM [2] of 17 to 35 mL/min/kg and a solubility at 2 h [3] of 9 to 100 µM (≈ 4.75 to 52.7 µg/mL).

For `CCN1CCN(Cc2ccc(Nc3nc4ccc(Oc5ccnc(NC(C)=O)c5)cc4n3C)cc2C(F)(F)F)CC1` [Compound R-1, reference compound], the IC50 [1] was 200 to 1000 nM, the CLint scaled at 1 μM [2] was 35 to 45 mL/min/kg and the solubility at 2 h [3] was 100 to 200 µM (≈ 56.8 to 114 µg/mL).
